# Measurements: PubChem BioAssay AID2060512 (Molecular Pharmacology Branch, DTP, NCI, 2025)
# Tested on: 186277-243-T-J2-PDC complex spheroid viability
# Experiment: Anticancer human tumor 186277-243-T-J2-PDC patient-derived colon adenocarcinoma cell line growth inhibition [GQUAD]
# Conditions: for IC50: curve of first compound; for viability, T/C: stronger effect = lower value
# Outline: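 Multi-cell-type spheroids of tumor cells with HUVEC and mesenchymal stem cells, treated with drug combinations. Concentrations descend in half-log steps from near clinical Cmax, or from 10 microM where Cmax is unknown; viability read-out.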
# [1] = second compound 0.0316 µM, first compound 0.0316 µM
# [2] = second compound 0.0316 µM, first compound 0.316 µM
# [3] = second compound 0.1 µM, first compound 0.0316 µM
# [4] = second compound 0.1 µM, first compound 0.316 µM
# [5] = second compound 0.316 µM, first compound 0.0316 µM
# [6] = second compound 0.316 µM, first compound 0.316 µM
# [7] = second compound 1 µM, first compound 0.0316 µM
# [8] = second compound 1 µM, first compound 0.316 µM
# [9] = second compound 3.16 µM, first compound 0.0316 µM
# [10] = second compound 3.16 µM, first compound 0.316 µM
# [11] = second compound 10 µM, first compound 0.0316 µM
# [12] = second compound 10 µM, first compound 0.316 µM
# 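Further: spheroids exposed to drugs for 7 days.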
# 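Wherever viability, T/C is given: 100% = DMSO vehicle control viability.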
structure (smiles),measurement,setting,value
CCc1c2c(nc3ccc(O)cc13)-c1cc3c(c(=O)n1C2)COC(=O)[C@]3(O)CC + Cc1[nH]c2ccc(F)cc2c1-c1nc2c3cccnc3c3ncccc3c2[nH]1,IC50,second compound 0.0316 µM,0.013 µM
same,IC50,second compound 0.1 µM,0.0131 µM
same,IC50,second compound 0.316 µM,0.0103 µM
same,IC50,second compound 1 µM,0.0113 µM
same,IC50,second compound 3.16 µM,0.00739 µM
same,IC50,second compound 10 µM,0.0157 µM
same,"viability, T/C","second compound 0.0316 µM, first compound 0.000999 µM",99.6%
same,"viability, T/C","second compound 0.0316 µM, first compound 0.00316 µM",71.6%
same,"viability, T/C","second compound 0.0316 µM, first compound 0.00999 µM",62.5%
same,"viability, T/C",[1],29.9%
same,"viability, T/C","second compound 0.0316 µM, first compound 0.0999 µM",25.1%
same,"viability, T/C",[2],21.1%
same,"viability, T/C","second compound 0.1 µM, first compound 0.000999 µM",115%
same,"viability, T/C","second compound 0.1 µM, first compound 0.00316 µM",94.5%
same,"viability, T/C","second compound 0.1 µM, first compound 0.00999 µM",52.4%
same,"viability, T/C",[3],36.5%
same,"viability, T/C","second compound 0.1 µM, first compound 0.0999 µM",21.4%
same,"viability, T/C",[4],22%
same,"viability, T/C","second compound 0.316 µM, first compound 0.000999 µM",105%
same,"viability, T/C","second compound 0.316 µM, first compound 0.00316 µM",70.1%
same,"viability, T/C","second compound 0.316 µM, first compound 0.00999 µM",54.2%
same,"viability, T/C",[5],33.9%
same,"viability, T/C","second compound 0.316 µM, first compound 0.0999 µM",23.7%
same,"viability, T/C",[6],19.8%
same,"viability, T/C","second compound 1 µM, first compound 0.000999 µM",91.5%
same,"viability, T/C","second compound 1 µM, first compound 0.00316 µM",73.2%
same,"viability, T/C","second compound 1 µM, first compound 0.00999 µM",49.9%
same,"viability, T/C",[7],37.4%
same,"viability, T/C","second compound 1 µM, first compound 0.0999 µM",25%
same,"viability, T/C",[8],20.7%
same,"viability, T/C","second compound 3.16 µM, first compound 0.000999 µM",85.9%
same,"viability, T/C","second compound 3.16 µM, first compound 0.00316 µM",63.5%
same,"viability, T/C","second compound 3.16 µM, first compound 0.00999 µM",45.6%
same,"viability, T/C",[9],31%
same,"viability, T/C","second compound 3.16 µM, first compound 0.0999 µM",26.4%
same,"viability, T/C",[10],18.7%
same,"viability, T/C","second compound 10 µM, first compound 0.000999 µM",77.2%
same,"viability, T/C","second compound 10 µM, first compound 0.00316 µM",72.2%
same,"viability, T/C","second compound 10 µM, first compound 0.00999 µM",58.8%
same,"viability, T/C",[11],36.8%
same,"viability, T/C","second compound 10 µM, first compound 0.0999 µM",24.1%
same,"viability, T/C",[12],23.3%
CCCS(=O)(=O)Nc1ccc(F)c(C(=O)c2c[nH]c3ncc(-c4ccc(Cl)cc4)cc23)c1F + CN(C)c1ccc(Nc2c3ccc(NC(=O)CCN4CCCC4)cc3nc3cc(NC(=O)CCN4CCCC4)ccc23)cc1,IC50,second compound 0.0316 µM,5.89 µM
same,IC50,second compound 0.1 µM,6.44 µM
same,IC50,second compound 0.316 µM,6.24 µM
same,IC50,second compound 1 µM,6.27 µM
same,IC50,second compound 3.16 µM,6.28 µM
same,IC50,second compound 10 µM,5.82 µM
same,"viability, T/C",[1],97.2%
same,"viability, T/C","second compound 0.0316 µM, first compound 0.1 µM",101%
same,"viability, T/C",[2],90.2%
same,"viability, T/C","second compound 0.0316 µM, first compound 1 µM",78.8%
same,"viability, T/C","second compound 0.0316 µM, first compound 3.16 µM",77.9%
same,"viability, T/C","second compound 0.0316 µM, first compound 10 µM",30.3%
same,"viability, T/C",[3],95.2%
same,"viability, T/C","second compound 0.1 µM, first compound 0.1 µM",81.4%
same,"viability, T/C",[4],83.6%
same,"viability, T/C","second compound 0.1 µM, first compound 1 µM",84.6%
same,"viability, T/C","second compound 0.1 µM, first compound 3.16 µM",95.8%
same,"viability, T/C","second compound 0.1 µM, first compound 10 µM",26.2%
same,"viability, T/C",[5],89.1%
same,"viability, T/C","second compound 0.316 µM, first compound 0.1 µM",102%
same,"viability, T/C",[6],86.3%
same,"viability, T/C","second compound 0.316 µM, first compound 1 µM",87%
same,"viability, T/C","second compound 0.316 µM, first compound 3.16 µM",82.7%
same,"viability, T/C","second compound 0.316 µM, first compound 10 µM",27.7%
same,"viability, T/C",[7],90.3%
same,"viability, T/C","second compound 1 µM, first compound 0.1 µM",93.1%
same,"viability, T/C",[8],84.4%
same,"viability, T/C","second compound 1 µM, first compound 1 µM",98.9%
same,"viability, T/C","second compound 1 µM, first compound 3.16 µM",83%
same,"viability, T/C","second compound 1 µM, first compound 10 µM",26.7%
same,"viability, T/C",[9],92.2%
same,"viability, T/C","second compound 3.16 µM, first compound 0.1 µM",105%
same,"viability, T/C",[10],86.5%
same,"viability, T/C","second compound 3.16 µM, first compound 1 µM",90.4%
same,"viability, T/C","second compound 3.16 µM, first compound 3.16 µM",82.5%
same,"viability, T/C","second compound 3.16 µM, first compound 10 µM",28.4%
same,"viability, T/C",[11],96.9%
same,"viability, T/C","second compound 10 µM, first compound 0.1 µM",91.1%
same,"viability, T/C",[12],97.9%
same,"viability, T/C","second compound 10 µM, first compound 1 µM",87.7%
same,"viability, T/C","second compound 10 µM, first compound 3.16 µM",82.3%
same,"viability, T/C","second compound 10 µM, first compound 10 µM",22%
